Results published in patent publication US5086074A, “1-aminomethyl-1,2,3,4-tetrahydronaphthalenes” (Abbott Laboratories, priority 1990, dated 1992).
Where a name gives a salt, the structure may show the parent alone.

The molecules below were run against T1, alpha-1-receptor (Rattus norvegicus, UniProt P15823) (assay: Radioligand binding, alpha-1 adrenoceptor, rat liver homogenates, [3H]-prazosin). Conditions: rat liver homogenates, [3H]-prazosin; read-out: Ki alpha-1.
T1 construct: rat liver homogenates; from tissue; host or cells: rat liver homogenate
T1 sequence (P15823 1-515): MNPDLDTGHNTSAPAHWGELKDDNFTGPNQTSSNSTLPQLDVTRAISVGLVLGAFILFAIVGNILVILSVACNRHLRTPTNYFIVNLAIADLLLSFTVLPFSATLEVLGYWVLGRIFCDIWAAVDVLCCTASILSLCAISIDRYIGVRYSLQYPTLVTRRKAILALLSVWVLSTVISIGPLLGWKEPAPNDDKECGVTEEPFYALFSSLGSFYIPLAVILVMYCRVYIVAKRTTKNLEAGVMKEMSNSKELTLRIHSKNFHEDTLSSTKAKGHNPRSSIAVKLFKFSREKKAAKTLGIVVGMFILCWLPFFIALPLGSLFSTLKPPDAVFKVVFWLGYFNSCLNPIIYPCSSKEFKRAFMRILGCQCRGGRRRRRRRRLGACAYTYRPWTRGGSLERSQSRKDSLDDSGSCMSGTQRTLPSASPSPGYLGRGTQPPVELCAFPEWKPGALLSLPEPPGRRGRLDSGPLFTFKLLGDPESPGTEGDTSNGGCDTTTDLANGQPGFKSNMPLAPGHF
Protocol: The compounds were assessed for alpha-adrenergic receptor subtype selectivity by use of radioligand binding techniques as described previously (DeBernardis et.al. J. Med. Chem. 28, 1398 (1985)).

| Structure (SMILES) | Ki |
| --- | --- |
| COc1ccc2c(c1)CCC2CN(C)CCc1cccs1 (stereo not drawn) [Example 37, 1-((N-Methylamino)methyl-N-(2-(2-thienyl)ethyl))-5-methoxy indane hydrochloride] | 645 nM |
| CCN(CCc1ccco1)CC1CCCc2cc(OC)ccc21 (stereo not drawn) [Example 43, 1-((N-Ethylamino)methyl-N-(2-(2-furyl)ethyl))-6-methoxy tetralin hydrochloride] | 1400 nM |
| CCN(CCc1cccs1)CC1CCCc2cc(OC)ccc21 (stereo not drawn) [Example 41, 1-((N Ethylamino)methyl-N (2-(2-thienyl)ethyl))-6methoxy tetralin hydrochloride] | 950 nM |
| CCN(CCc1ccsc1)CC1CCCc2cc(OC)ccc21 (stereo not drawn) [Example 44, 1-((N-Ethylamino)methyl-N-(2-(3-thienyl)ethyl))-6-methoxy tetralin hydrochloride] | 590 nM |
| COc1ccc2c(c1)CCCC2CN(C)CCc1cccc(F)c1 (stereo not drawn) [Example 6b, 1-((N-methylamino)methyl-N-(2-(m-fluorophenyl)ethyl))-6-methoxy tetralin hydrochloride] | 1180 nM |
| COc1cc2c(c(OC)c1)C(CN(C)CCc1cccs1)CCC2 (stereo not drawn) [Example 26, 1-((N Methylamino)methyl-N-(2-(2-thienyl)ethyl))6,8-dimethoxy tetralin hydrochloride] | 175 nM |
| Cc1cc(O)c(O)c2c1C(CN(C)CCc1cccc(F)c1)CCC2 (stereo not drawn) [Example 34, 1-((N-Methylamino)methyl-N (2-(m-fluorophenyl)ethyl))-5,6-dihydroxy-8-methyl tetralin hydrobromide] | 330 nM |
| CCN(CCc1cccc(F)c1)CC1CCCc2cc(OC)ccc21 (stereo not drawn) [Example 42, 1-((N Ethylamino)methyl-N-(2-(m-fluorophenyl)ethyl))-6-methoxy tetralin hydrochloride] | 1050 nM |
| COc1ccc2c(c1)CCCC2CN(C)CCc1cccs1 (stereo not drawn) [Example 5, ((N-Methylamino)methyl-N-(2-(2-thienyl)ethyl)) 6-methoxy tetralin methanesulfonate] | 580 nM |
| CN(CCc1cccs1)CC1CCCc2cc(O)ccc21 (stereo not drawn) [Example 7, 1-((N-Methylamino)methyl N-(2-(2-thienyl)ethyl)) 6-hydroxy tetralin hydrochloride] | 565 nM |

More lines, now with the values ahead:

| Ki | Structure (SMILES) |
| --- | --- |
| 444 nM | CN(CCc1cccs1)CC1CCCc2c1ccc(O)c2O (stereo not drawn) [Example 87, 1-((N-Methylamino)methyl-N-(2-(2-thienyl)ethyl))-5,6-dihydroxy tetralin hydrochloride] |
| 855 nM | COc1cc2c(cc1C)C(CN(C)CCc1ccco1)CCC2 (stereo not drawn) [Example 128, 1-((N-Methylamino)methyl-N-(2-(2-furyl)ethyl))6-methoxy-7-methyl tetralin hydrochloride] |
| 603 nM | CN(CCc1cccc(F)c1)CC1CCCc2c1ccc1c2OCO1 (stereo not drawn) [Example 166, 1-((N-Methylamino)methyl-N (2-m-fluorophenethyl))-5,6-methylenedioxy tetralin methanesulfonate] |
| 1170 nM | CN(CCc1cccc(N)c1)CC1CCCc2cc(O)ccc21 (stereo not drawn) [Example 68, 1-((N-Methylamino)methyl N-(2-(m-aminophenyl)ethyl))-6-hydroxy tetralin dihydrobromide] |
| 260 nM | CN(CCc1cccc(F)c1)CC1CCCc2c1ccc(O)c2O (stereo not drawn) [Example 85, 1-((N-Methylamino)methyl-N-(2-(m-fluorophenyl)ethyl))-5,6-dihydroxy tetralin hydrochloride] |
| 79 nM | Fc1ccccc1C1CCN(CC2CCCc3c2ccc2c3OCO2)C1 (stereo not drawn) [Example 176a, 5,6-Methylenedioxy-1-(3-(o-fluorophenyl)pyrrolidino-1-methyl) tetralin methanesulfonate] |
| 462 nM | CCN(CCc1cccc(F)c1)CC1CCCc2c1ccc1c2OCO1 (stereo not drawn) [Example 165, 1-((N-Ethylamino)methyl-N-(2-m-fluorophenethyl))-5,6-methylenedioxy tetralin hydrochloride] |
| 725 nM | CN(CCc1ccccc1)CC1CCCc2cc(N)ccc21 (stereo not drawn) [Example 114, 1-((N-Methylaminomethyl-N-(2-phenylethyl))-6-aminotetralindihydrochloride] |
